Here are results for four compounds from patent US8633324B2, “Denibulin di-hydrochloride” (Medicinova, Inc., priority 2011, dated 2014).

The solubility is the dissolved amount per volume that the medium holds.

Values after ≈ are worked out from the molar mass of the structure shown. Where two headings read alike, the source gives them in different places.

Format in all cases: physicochemical
A short description of data set [1]: pKa, predicted (ACD) versus measured (Sirius GlpKa). From the text:
MN-029 has a primary, secondary and tertiary amino group. The pKa's of these amino groups, therefore, should play a role in aqueous solubility, stability and pharmacokinetics. Accordingly, the present inventor compared the predicted pKa's of the alanyl and ring nitrogen atoms to their measured pKa values and unexpectedly found a significant difference between the measured and predicted pKa values for the benzimidazole nitrogen atoms. Thus, for the acidic >N—H group of imidazole, there is approximately a 6-fold difference between the predicted and measured pKa values as shown in Scheme 3. For the more basic ring nitrogen (—N═), however, the difference between observe red and predicted pKa values is 30-fold. That is, the measured value of basicity for the unprotonated ring nitrogen is much lower than the predicted value.
Predicted pKa values were calculated using ACD pKa prediction software v. 9. Actual pKa values were collected on a Sirius GlpKa instrument with a D-PAS attachment. Measurements were made at 25° C. in aqueous solution by UV and in methanol water mixtures by potentiometry. The ionic-strength of the titration media was adjusted with 0.15 M aqueous KCl. The values found in methanol water mixtures were corrected to 0% co-solvent via a Yashuda-Shedlovsky extrapolation. The data were refined using Refinement Pro software v. 1.0. No difference in pKa between the tautomers of MN-029 di-hydrochloride were detected experimentally or theoretically.

The nature of data set [2]: Solubility as a function of pH in buffers without and with 15% HPBCD. Particulars: for solubility at 5 days: thermodynamic from solid, read-out: MN-029 Solubility. The protocol:
Buffers were prepared to cover a pH range of 2 to 7. Approximately 5 to 10 milligrams of drug was weighed into an HPLC vial to which 1.00 mL of the appropriate buffer was added. The solutions were vortexed briefly and were then shaken for five days on an orbital shaker. The prolonged shaking was carried out because slow equilibration had been observed during the initial formulation studies with different salt forms of MN-029.
Buffers with 15% HPBCD were prepared from the previous buffers. One and a half grams of HPBCD was weighed into each of several 10 mL volumetric flasks. HPBCD was dissolved in and diluted to volume with the appropriate buffer. 15 to 20 milligrams of MN-029 di-hydrochloride was weighed out into an tared HPLC vial. To the di-hydrochloride salt was added 1.00 mL of each buffer and the solution was vortexed briefly to dissolve the salt. The solutions were placed on an orbital shaker for five days. Solubility results are shown in Table 10, and the pH solubility profile for the drug in the absence of HPBCD is shown in FIG. 8.

Data set [3] is described as follows: Evaluation of other salt forms as active pharmaceutical ingredient. Particulars: reasons including instability, hygroscopicity and deliquescence even at moderate humidity. The procedure:
The advantageous nature of the physicochemical properties of the di-hydrochloride salt of MN-029 seems to be borne out, not just in comparison with the mono-hydrochloride salt but also with three other salts that were prepared to determine each salt's potential to be an active pharmaceutical ingredient. These other salt forms were the mesylate, malonate and sulfate salts of denibulin. Each was deemed unsuitable for use in pharmaceutical formulations because of one or more reasons, including instability, hygroscopicity and deliquescence even at moderate humidity.

A short description of data set [4]: Aqueous solubility, 24 hours equilibration in water at 25° C., HPLC, pH and XRPD of residue. Particulars: for XRPD of solid residue: residue after 24 hours equilibration in water at 25° C. The procedure: Briefly, quantitative high performance liquid chromatography (HPLC) was used to determine the aqueous solubility. X-ray powder diffraction spectrometry was also used to characterize the thermodynamic solubility of the mono-hydrochloride and di-hydrochloride salts of MN-029. After a 24 hours equilibration of each salt form in water at 25° C., the residual solid material was separated from the aqueous solution and the pH of the aqueous sample was measured. The XRPD spectrum of the solid residue obtained from the MN-029 di-hydrochloride vial indicated the solid material to be the mono-hydrochloride salt of MN-029. […] Table 4 illustrates the data from aqueous solubility studies of the mono-hydrochloride and di-hydrochloride salts of MN-029.
The suspension was equilibrated at 25° C. for 24 hours then pH was measured. The suspension was filtered and the filtrate was diluted by a factor of 101. Quantization by HPLC with a reference to a standard solution. Different volumes of the standard, diluted, and undiluted solution were injected and solubility was calculated by integration of the peak found at the same time as the principle peak in the standard solution.

The nature of data set [5]: Gravimetric Vapor Sorption (GVS) hygroscopicity. Particulars: for Weight change: GVS. From the text:
Moreover, neither the mono-hydrochloride salt or the di-hydrochloride salt of MN-029 show any significant change in phase as measured by XRPD analysis of samples subjected to GVS analysis (see FIG. 6).

A short description of data set [6]: Log P, Log Pion, Log D by potentiometric titration (Sirius GlpKa, octanol:water). Particulars: octanol:ionic-strength adjusted water. From the text:
Most drugs have an ideal log P value and any deviation from this idealized value results in reduced absorption, slow transport of drug to the site of action and consequently, a decrease in biological activity. Table 8, illustrates the predicted and measured values for partition coefficients of MN-029 di-hydrochloride. The data was collected by potentiometric titration using a Sirius GlpKa instrument using three ratios of octanol:ionic-strength adjusted water to generate Log P, Log Pion and Log D values and the raw data was analyzed using Refinement Pro Software V.1.0. The predicted value of Log P was obtained using ACD V. software and Syracuse KOWWIN V.1.67 softwares.

The mark [7] stands for this setting: water, 25° C., equilibration for 24 hours.

For the compound `COC(=O)Nc1nc2ccc(Sc3ccc(NC(=O)[C@H](C)N)cc3)cc2[nH]1` [MN-029, carbamic acid N-[6-[[4-[[(2S)-2-amino-1-oxopropyl]amino]phenyl]thio]-1H-benzimidazol-2-yl]-methyl ester], the “difference between predicted and measured pKa values” in data set [1] (acidic >N—H group of imidazole) is given as roughly 6 fold; in data set [1] (alanyl amino group) it was “no significant difference”. Besides, in data set [1] (more basic ring nitrogen (—N═)), the “difference between observed and predicted pKa values” is 30 fold. Besides, in data set [2] (Without HPBCD, buffer pH 2.0, final pH 2.10, five days shaking), the “MN-029 Solubility” value was determined as 6160 µg/mL. Moreover, the solubility at 5 days is greater than 20900 µg/mL in data set [2] (aqueous buffer with 15% HPBCD, pH 2, aqueous with cosolvent or surfactant or cyclodextrin, With 15% HPBCD, buffer pH 2.0, final pH 2.03); greater than 24400 µg/mL in data set [2] (aqueous buffer with 15% HPBCD, pH 3, aqueous with cosolvent or surfactant or cyclodextrin, With 15% HPBCD, buffer pH 3.0, final pH 3.11); greater than 21500 µg/mL in data set [2] (aqueous buffer with 15% HPBCD, pH 4, aqueous with cosolvent or surfactant or cyclodextrin, With 15% HPBCD, buffer pH 4.0, final pH 3.98); greater than 23000 µg/mL in data set [2] (aqueous buffer with 15% HPBCD, pH 5, aqueous with cosolvent or surfactant or cyclodextrin, With 15% HPBCD, buffer pH 5.0, final pH 5.24); greater than 24300 µg/mL in data set [2] (aqueous buffer with 15% HPBCD, pH 6, aqueous with cosolvent or surfactant or cyclodextrin, With 15% HPBCD, buffer pH 6.0, final pH 6.27); greater than 22700 µg/mL in data set [2] (aqueous buffer with 15% HPBCD, pH 7, aqueous with cosolvent or surfactant or cyclodextrin, With 15% HPBCD, buffer pH 7.0, final pH 6.90). For the same compound, the solubility at 5 days came to 290 µg/mL (≈ 752 µM) in data set [2] (aqueous buffer, pH 3, aqueous buffer, Without HPBCD, buffer pH 3.0, final pH 3.35); 560 µg/mL (≈ 1450 µM) in data set [2] (aqueous buffer, pH 4, aqueous buffer, Without HPBCD, buffer pH 4.0, final pH 3.92); 150 µg/mL (≈ 389 µM) in data set [2] (aqueous buffer, pH 5, aqueous buffer, Without HPBCD, buffer pH 5.0, final pH 4.93); 130 µg/mL (≈ 337 µM) in data set [2] (aqueous buffer, pH 6, aqueous buffer, Without HPBCD, buffer pH 6.0, final pH 6.24); 26 µg/mL (≈ 67.5 µM) in data set [2] (aqueous buffer, pH 7, aqueous buffer, Without HPBCD, buffer pH 7.0, final pH 6.96).

For the compound malonate, in data set [3], the “suitability for use in pharmaceutical formulations” value is listed as “unsuitable”.

For the compound `COC(=O)Nc1nc2cc(Sc3ccc(NC(=O)[C@H](C)N)cc3)ccc2[nH]1.Cl` [MN-029 mono-hydrochloride, reference compound], the results for the “XRPD of solid residue” value in data set [4] (listed as A063866) and in data set [4] (listed as MN-029*HCl) were “No significant difference” and “No significant”, respectively. In data set [4] (setting [7]), the Concentration of filtrate is on record as 0.63 mg/ml of free base. In data set [4] (setting [7]), the “pH of saturated solution” value was determined as 2.37. Moreover, the Weight change result in data set [5] (0% RH to 40% RH) is recorded as “+1.04 % w/w”; in data set [5] (40% RH to 90% RH, listed as A063866) it was “Reversible uptake of +2.12% w/w”; in data set [5] (40% RH to 90% RH, listed as MN029*HCl), “+2.12 % w/w”; in data set [5] (90% RH to 0% RH), −3.39 % w/w. In addition, the “XRPD of residue after GVS” value in data set [5] (sample subjected to GVS) is “No significant difference”. Also, in data set [6], the “Measured LogP” value is 2.64. In data set [6], the “Measured LogPion(cation)” value was 0.93. Moreover, the “Measured LogD7.4” value in data set [6] (pH 7.4) is recorded as 2.10.

`O=S(=O)(O)O` [sulfate]: in data set [3], the “suitability for use in pharmaceutical formulations” value is “unsuitable”.
